{"source": "patent US8648105B2", "about": "“Diarylthiohydantoin compounds” (The Regents of the University of California, priority 2006, dated 2014)", "key": {"[1]": {"experiment": "Pharmacokinetics, drug concentration in mouse serum/plasma by HPLC", "settings": "in vivo", "procedure": "Mice were divided into groups of three for each time points. Two mice were not treated with drug and two other mice were treated with vehicle solution. Each group was treated with 10 mg per kilogram of body weight.\nThe drug was dissolved in a mixture 1:5:14 of DMSO:PEG400: H20. (Vehicle solution) and was administered into mice through the tail vein. The animals are warmed under a heat lamp for approximately 20 minutes prior to treatment to dilate their tail vein. […] After drug administration, the animals were euthanized via CO2 inhalation at different timepoints: 5 nm, 30 nm, 2 h, 6 h, 16 h. Animals were immediately bleed after exposure to CO2 via cardiac puncture (1 ml BD syringe+27 G ⅝ needle).\nThe samples for HPLC analysis were prepared according to the following procedure:\nBlood cells were separated from serum by centrifugation.\nTo 400 μl of serum were added 80 μl of a 10 μM solution of an internal standard and 520 μl of acetonitrile. Precipitation occurred.\nThe mixture was vortexed for 3 minutes and then placed under ultrasound for 30 minutes.\nThe solid particles were filtered off or were separated by centrifugation.\nThe filtrate was dried under an argon flow to dryness."}, "[2]": {"experiment": "Ranking of compounds in tiers for utility in treating prostate cancer", "source_text": "The placement of compounds into tiers was based on available data coupled with analytical judgment. Data considered included in vitro assays (AR response reporter system in LNCaP cell line, PSA level measurement, MTS mitochondrial assay) and in vivo experiments (tumor size measured directly or by emission induced by luciferase reporter gene, pharmacokinetic assays based on blood plasma levels). Not every compound was subjected to each assay. Not all data that was generated is shown. Judgment was applied in ranking compounds relative to each other for their utility in treating prostate cancer, in particular when ranking two compounds for which the same experiments were not performed."}, "AR [3]": {"molecular_target": "T1, AR (Homo sapiens, UniProt P10275)", "T1 sequence (P10275 1-920)": "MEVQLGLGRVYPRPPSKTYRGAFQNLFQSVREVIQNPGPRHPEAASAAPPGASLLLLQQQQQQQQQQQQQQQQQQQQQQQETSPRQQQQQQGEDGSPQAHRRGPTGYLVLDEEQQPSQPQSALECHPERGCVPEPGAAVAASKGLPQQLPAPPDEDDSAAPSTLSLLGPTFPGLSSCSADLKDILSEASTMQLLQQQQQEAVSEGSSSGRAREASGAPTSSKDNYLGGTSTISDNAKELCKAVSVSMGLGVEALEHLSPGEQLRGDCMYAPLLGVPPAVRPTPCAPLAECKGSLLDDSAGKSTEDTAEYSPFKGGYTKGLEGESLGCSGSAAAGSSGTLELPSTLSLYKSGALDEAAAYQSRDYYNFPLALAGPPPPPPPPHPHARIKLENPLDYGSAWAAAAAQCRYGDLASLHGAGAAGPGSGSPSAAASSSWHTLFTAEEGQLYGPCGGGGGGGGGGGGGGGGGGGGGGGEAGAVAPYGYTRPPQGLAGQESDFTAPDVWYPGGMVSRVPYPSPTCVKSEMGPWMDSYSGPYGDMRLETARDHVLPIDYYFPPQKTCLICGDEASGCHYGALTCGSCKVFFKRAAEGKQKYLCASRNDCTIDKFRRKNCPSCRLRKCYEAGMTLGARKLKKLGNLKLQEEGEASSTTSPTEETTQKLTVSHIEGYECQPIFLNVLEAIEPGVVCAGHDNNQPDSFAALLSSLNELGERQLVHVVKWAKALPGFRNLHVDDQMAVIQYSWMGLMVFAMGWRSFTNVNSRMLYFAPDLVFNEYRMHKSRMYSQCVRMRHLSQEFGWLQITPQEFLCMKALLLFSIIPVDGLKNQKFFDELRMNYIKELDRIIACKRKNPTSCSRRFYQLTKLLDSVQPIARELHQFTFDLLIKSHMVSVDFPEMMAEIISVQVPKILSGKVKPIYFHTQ", "type": "cell-based", "design": "Fold induction, AR response reporter", "settings": "for rank by relative PSA level, most active to least active: 500 nM; for decrease in PSA level of LNCaP-AR cells (comparison): 1000 nM", "method": "It is well established that PSA levels are indicators of AR activities in prostate cancer. […] The LNCaP-AR cells are a line of lymph node carcinoma of prostate cells transduced with a plasmid that makes express androgen receptors. […] After four days incubation, secreted PSA levels were assayed using PSA ELISA kits (American Qualex, San Clemente, Calif.)"}, "AR [4]": {"tested_on": "AR", "type": "cell-based", "settings": "FIG. 24", "method": "(§1) The compounds were subjected to tests using an artificial AR response reporter system in a hormone refractory prostate cancer cell line. […] After two days of incubation, reporter activities were assayed."}, "LogP": {"experiment": "LogP", "type": "physicochemical"}, "SkBr3": {"tested_on": "SkBr3", "experiment": "Growth effect on SkBr3 cells", "type": "cell-based", "settings": "SkBr3 breast cancer cells"}, "3T3": {"tested_on": "3T3", "experiment": "Growth effect on 3T3 cells", "type": "cell-based", "settings": "3T3 normal mouse fibroblast cell line"}, "DU-145 cells": {"tested_on": "DU-145 cells", "experiment": "MTS growth assay in DU-145 cells", "type": "cell-based", "settings": "DU-145, lacks AR expression"}, "[5]": {"molecular_target": "T2, glucocorticoid receptor (GR) (Homo sapiens, UniProt P04150)", "T2 construct": "expressed in transfected cells; host or cells: LNCaP cells", "T2 sequence (P04150 1-777)": "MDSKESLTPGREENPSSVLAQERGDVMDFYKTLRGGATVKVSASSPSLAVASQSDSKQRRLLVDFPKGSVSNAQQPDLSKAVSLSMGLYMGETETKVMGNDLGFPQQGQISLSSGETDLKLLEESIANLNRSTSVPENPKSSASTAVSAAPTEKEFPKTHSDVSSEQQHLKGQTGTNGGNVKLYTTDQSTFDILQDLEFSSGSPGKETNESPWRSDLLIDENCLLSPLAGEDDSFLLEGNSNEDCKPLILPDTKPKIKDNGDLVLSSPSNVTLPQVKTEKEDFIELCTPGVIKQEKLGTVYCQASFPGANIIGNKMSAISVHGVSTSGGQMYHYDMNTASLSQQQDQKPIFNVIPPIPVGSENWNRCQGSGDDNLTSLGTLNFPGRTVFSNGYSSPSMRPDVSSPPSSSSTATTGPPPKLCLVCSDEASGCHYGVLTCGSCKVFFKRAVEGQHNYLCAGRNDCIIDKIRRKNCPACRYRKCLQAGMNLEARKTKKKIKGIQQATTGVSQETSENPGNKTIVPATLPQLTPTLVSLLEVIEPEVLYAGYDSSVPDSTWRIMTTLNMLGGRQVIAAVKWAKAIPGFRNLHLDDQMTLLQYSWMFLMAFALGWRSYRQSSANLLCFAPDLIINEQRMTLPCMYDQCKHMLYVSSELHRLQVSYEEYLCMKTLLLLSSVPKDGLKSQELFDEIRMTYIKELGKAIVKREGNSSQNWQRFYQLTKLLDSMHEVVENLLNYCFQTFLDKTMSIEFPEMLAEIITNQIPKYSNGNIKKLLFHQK", "experiment": "GR response reporter in LNCaP cells over expressing glucocorticoid receptor", "type": "cell-based"}, "AR [6]": {"molecular_target": "T1, AR", "type": "cell-based", "design": "Fold induction, AR response reporter", "settings": "AR over expressed LNCaP, absence of R1881"}, "MCF7": {"tested_on": "MCF7", "experiment": "Growth effect on MCF7 cells", "type": "cell-based", "settings": "MCF7 breast cancer cells"}, "AR [7]": {"molecular_target": "T1, AR", "type": "cell-based", "design": "Fold induction, AR response reporter", "settings": "LN-AR, absence of R1881", "method": "Activities of AR response reporter were measured."}, "AR [8]": {"molecular_target": "T1, AR", "type": "cell-based", "design": "Fold induction, AR response reporter", "settings": "for inhibitory activity on AR response reporter: hormone refractory LNCaP-AR", "method": "as §1"}, "LIAR cell line": {"tested_on": "LIAR cell line", "experiment": "Luciferase activity of the LIAR cell line (FIG. 25)", "type": "cell-based", "settings": "125 nmol to 1000 nmol", "excerpt": "FIG. 25 is a graph of luciferase activity of the LIAR cell line dosed with various compounds administered at concentrations ranging from 125 nmol to 1000 nmol.\nThe inventors have determined that what might appear to be a small change in the structure of hydantoin compounds may result in a large change in that compound's performance in treating prostate cancer."}, "androgen receptor": {"molecular_target": "T3, androgen receptor (Homo sapiens, UniProt P10275, T878A)", "T3 sequence (P10275 1-920 T878A)": "T1 sequence (P10275 1-920) with T878A", "settings": "10 uM (R1881 1 nM), LNCaP"}}, "note": "Where a chain is given by its changes, count along the chain named."}
{"compound": "CNC(=O)CCCc1ccc(N2C(=S)N(c3ccc(C#N)c(C(F)(F)F)c3)C(=O)C23CCC3)cc1", "note": "[NC48, 4-{4-[7-(4-Cyano-3-trifluoromethylphenyl)-8-oxo-6-thioxo-5,7-diaza-spiro[3.4]oct-5-yl]-phenyl}-N-methyl-butyramide]", "values": [{"measurement": "pharmacokinetic behavior, residence time in blood", "setting": "[1]", "result": "metabolize fast"}, {"measurement": "activity remarks in the ranking", "setting": "[2]", "result": "particularly advantageous"}, {"measurement": "rank by relative PSA level, most active to least active", "setting": "AR [3]", "result": "NC50>NC48>NC7>NC43>NC44>NC49>NC50>NC45>bicalutamide"}, {"measurement": "decrease in PSA level of LNCaP-AR cells (comparison)", "setting": "AR [3]", "result": "greater decrease in PSA level of LNCaP-AR cells than NC43, NC44, and NC50"}, {"measurement": "PSA levels", "setting": "AR [3]; LN-AR cells, FIG. 23", "result": "PSA levels decreased"}, {"measurement": "PSA level (comparison)", "setting": "AR [3]; LN/AR cell line, 125 nmol to 1000 nmol", "result": "less than the PSA level upon exposure to NC42 and NC46"}, {"measurement": "IC50 (comparison)", "setting": "AR [4]", "result": "much lower than the IC50 for bicalutamide"}, {"measurement": "logP", "setting": "LogP", "result": 3.44}]}
{"compound": "Cc1ccc(N2C(=S)N(c3ccc(C#N)c(C(F)(F)F)c3)C(=O)C23CCC3)cc1", "note": "[NC7, 4-(8-oxo-6-thioxo-5-(4-methylphenyl)-5,7-diazaspiro[3.4]oct-7-yl)-2-trifluoromethylbenzonitrile]", "values": [{"measurement": "growth effect", "setting": "SkBr3", "result": "no growth effect"}, {"measurement": "growth effect", "setting": "3T3", "result": "no growth effect"}, {"measurement": "growth inhibitory effect", "setting": "DU-145 cells", "result": "no growth inhibitory effect"}, {"measurement": "pharmacokinetic behavior, residence time in blood", "setting": "[1]", "result": "metabolize fast"}, {"measurement": "effect on GR response reporter", "setting": "[5]", "result": "no effect on GR"}, {"measurement": "agonistic activity on secreted PSA", "setting": "AR [6]", "result": "no agonistic activities"}, {"measurement": "rank by relative PSA level, most active to least active", "setting": "AR [3]", "result": "NC50>NC48>NC7>NC43>NC44>NC49>NC50>NC45>bicalutamide"}, {"measurement": "decrease in PSA level of LNCaP-AR cells (comparison)", "setting": "AR [3]", "result": "greater decrease in PSA level of LNCaP-AR cells than NC43, NC44, and NC50"}, {"measurement": "growth effect", "setting": "MCF7", "result": "no growth effect"}, {"measurement": "IC50 (comparison)", "setting": "AR [4]", "result": "much lower than the IC50 for bicalutamide"}, {"measurement": "agonistic activity on AR response reporter", "setting": "AR [7]", "result": "no agonistic activity"}]}
{"compound": "CNC(=O)c1ccc(N2C(=S)N(c3ccc(C#N)c(C(F)(F)F)c3)C(=O)C23CCC3)cc1", "note": "[NC77]", "values": [{"measurement": "luciferase activity in LNCaP-AR cells", "setting": "AR [8]; 125 nM to 1000 nM, FIG. 3", "result": "acted to reduce luciferase activity"}, {"measurement": "rank by relative luciferase activity, most active to least active", "setting": "AR [8]; 500 nM, FIG. 3", "result": "NC67>NC68>NC66>NC69>NC77=NC53>bicalutamide"}, {"measurement": "luciferase activity (comparison)", "setting": "LIAR cell line", "result": "less than the luciferase activity upon exposure to NC98"}]}
{"compound": "Cc1ccc(N2C(=S)N(c3ccc(C#N)c(Cl)c3)C(=O)C2(C)C)cc1", "note": "[NC107]", "values": [{"measurement": "activity remarks in the ranking", "setting": "[2]", "result": "very poor activity"}]}
{"compound": "Cc1ccc(N2C(=S)N(c3ccc(C#N)c(C(F)(F)F)c3)C(=O)C2(C)C)cc1", "note": "[NC2, 4-[3-(4-methylphenyl)-4,4-dimethyl-5-oxo-2-thioxoimidazolidin-1-yl]-2-trifluoromethyl-benzonitrile]", "values": [{"measurement": "growth effect", "setting": "SkBr3", "result": "no growth effect"}, {"measurement": "growth effect", "setting": "3T3", "result": "no growth effect"}, {"measurement": "growth inhibitory effect", "setting": "DU-145 cells", "result": "no growth inhibitory effect"}, {"measurement": "growth effect", "setting": "MCF7", "result": "no growth effect"}]}
{"compound": "C[C@]1(O)CC[C@H]2[C@@H]3CCC4=CC(=O)CCC4=C3C=C[C@@]21C", "note": "[R1881, methyltrienolone, reference compound]", "values": [{"measurement": "induction of secreted PSA level", "setting": "AR [3]", "result": "strongly induced"}, {"measurement": "androgen receptor nuclear translocation", "setting": "androgen receptor", "result": "nuclear translocation of the androgen receptor occurred"}]}
{"compound": "Cc1ccc(N2C(=S)N(c3ccc(C#N)c(I)c3)C(=O)C2(C)C)cc1", "note": "[NC63]", "values": [{"measurement": "activity remarks in the ranking", "setting": "[2]", "result": "good activity"}]}
{"compound": "CN1C(=O)N(c2ccc(C#N)c(C(F)(F)F)c2)C(=O)C12CCC2", "note": "[NC25, 4-(5-methyl-6,8-dioxo-5,7-diazaspiro[3.4]oct-7-yl)-2-trifluoromethylbenzonitrile, reference compound]", "values": [{"measurement": "inhibitory activity on AR response reporter", "setting": "AR [8]", "result": "no inhibitory activities"}, {"measurement": "agonistic activity on secreted PSA", "setting": "AR [6]", "result": "stimulated PSA expression"}, {"measurement": "agonistic activity on AR response reporter", "setting": "AR [7]", "result": "strongly activated AR"}]}
{"compound": "CN1C(=S)N(c2ccc(C#N)c(C(F)(F)F)c2)C(=O)C12CCC2", "note": "[NC24, 4-(5-methyl-8-oxo-6-thioxo-5,7-diazaspiro[3.4]oct-7-yl)-2-trifluoromethylenzonitrile, reference compound]", "values": [{"measurement": "inhibitory activity on AR response reporter", "setting": "AR [8]", "result": "no inhibitory activities"}, {"measurement": "agonistic activity on secreted PSA", "setting": "AR [6]", "result": "stimulated PSA expression"}, {"measurement": "agonistic activity on AR response reporter", "setting": "AR [7]", "result": "strongly activated AR"}]}
